Measurements from patent US8658604B2, “Template-fixed beta-hairpin peptidomimetics with protease inhibitory activity” (Polyphor Ltd, priority 2005, dated 2014).
Where a SMILES comes first, the peptide text is derived from it.

Biological target: T1, Elastase from human neutrophils (Homo sapiens, UniProt P08246)
T1 sequence (P08246 30-267): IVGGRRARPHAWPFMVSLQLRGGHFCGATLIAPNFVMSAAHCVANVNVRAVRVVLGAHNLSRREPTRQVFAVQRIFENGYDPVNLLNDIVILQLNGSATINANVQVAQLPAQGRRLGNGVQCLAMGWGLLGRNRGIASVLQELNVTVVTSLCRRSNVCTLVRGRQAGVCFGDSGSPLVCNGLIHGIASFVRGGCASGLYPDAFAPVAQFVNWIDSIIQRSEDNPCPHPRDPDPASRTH
Assay: Enzymatic assay, elastase
Details: Elastase IC50

Compound	IC50 [nM]
CC[C@H](C)[C@@H]1NC(=O)[C@@H]2CCCN2C(=O)[C@H]2CCCN2C(=O)[C@H](Cc2ccc(O)cc2)NC(=O)[C@@H]2CSSC[C@H](NC1=O)C(=O)N[C@@H]([C@@H](C)O)C(=O)N[C@@H](C)C(=O)N[C@@H](CO)C(=O)N[C@@H](CC(C)C)C(=O)N1CCC[C@H]1C(=O)N1CCC[C@H]1C(=O)N[C@@H](CCC(N)=O)C(=O)N2 [Ex. 76] (HELM PEPTIDE1{I.C.T.A.S.L.P.P.Q.C.Y.[dP].P}$PEPTIDE1,PEPTIDE1,2:R3-10:R3|PEPTIDE1,PEPTIDE1,1:R1-13:R2$$$V2.0)	71
CCCC[C@@H]1NC(=O)[C@@H]2CCCN2C(=O)[C@H]2CCCN2C(=O)[C@H](Cc2ccc(O)cc2)NC(=O)[C@@H]2CSSC[C@H](NC1=O)C(=O)N[C@@H]([C@@H](C)O)C(=O)N[C@@H]([C@@H](C)O)C(=O)N[C@@H](CO)C(=O)N[C@@H]([C@@H](C)CC)C(=O)N1CCC[C@H]1C(=O)N1CCC[C@H]1C(=O)N[C@@H](Cc1ccc(O)cc1)C(=O)N2 [Ex. 77] (HELM PEPTIDE1{[Nle].C.T.T.S.I.P.P.Y.C.Y.[dP].P}$PEPTIDE1,PEPTIDE1,2:R3-10:R3|PEPTIDE1,PEPTIDE1,1:R1-13:R2$$$V2.0)	68
CCCC[C@@H]1NC(=O)[C@@H]2CCCN2C(=O)[C@H]2CCCN2C(=O)[C@H](Cc2ccc(O)cc2)NC(=O)[C@@H]2CSSC[C@H](NC1=O)C(=O)N[C@@H]([C@@H](C)O)C(=O)N[C@@H](C)C(=O)N[C@@H](CO)C(=O)N[C@@H](CCCC)C(=O)N1CCC[C@H]1C(=O)N1CCC[C@H]1C(=O)N[C@@H](CCC(N)=O)C(=O)N2 [Ex. 79] (HELM PEPTIDE1{[Nle].C.T.A.S.[Nle].P.P.Q.C.Y.[dP].P}$PEPTIDE1,PEPTIDE1,2:R3-10:R3|PEPTIDE1,PEPTIDE1,1:R1-13:R2$$$V2.0)	66
CCCC[C@@H]1NC(=O)[C@@H]2CCCN2C(=O)[C@H]2CCCN2C(=O)[C@H](CCCC)NC(=O)[C@@H]2CSSC[C@H](NC1=O)C(=O)N[C@@H]([C@@H](C)O)C(=O)N[C@@H](C)C(=O)N[C@@H](CO)C(=O)N[C@@H]([C@@H](C)CC)C(=O)N1CCC[C@H]1C(=O)N1CCC[C@H]1C(=O)N[C@@H](CCC(N)=O)C(=O)N2 [Ex. 94] (HELM PEPTIDE1{[Nle].C.T.A.S.I.P.P.Q.C.[Nle].[dP].P}$PEPTIDE1,PEPTIDE1,2:R3-10:R3|PEPTIDE1,PEPTIDE1,1:R1-13:R2$$$V2.0)	50
CC[C@H](C)[C@@H]1NC(=O)[C@H](CO)NC(=O)[C@H](C)NC(=O)[C@H]([C@@H](C)O)NC(=O)[C@@H]2CSSC[C@H](NC(=O)[C@H](CCC(N)=O)NC(=O)[C@@H]3CCCN3C(=O)[C@@H]3CCCN3C1=O)C(=O)N[C@@H](Cc1ccc(O)cc1)C(=O)N1CCC[C@@H]1C(=O)N1CCC[C@H]1C(=O)N[C@@H](C1CCCCC1)C(=O)N2 [Ex. 101] (HELM PEPTIDE1{[O=C([C@@H](N[*:1])C1CCCCC1)[*:2]].C.T.A.S.I.P.P.Q.C.Y.[dP].P}$PEPTIDE1,PEPTIDE1,2:R3-10:R3|PEPTIDE1,PEPTIDE1,1:R1-13:R2$$$V2.0)	49
CCCC[C@@H]1NC(=O)[C@@H]2CCCN2C(=O)[C@H]2CCCN2C(=O)[C@H](Cc2ccc(O)cc2)NC(=O)[C@H](CCCNC(=N)N)NC(=O)[C@H](CCC(N)=O)NC(=O)[C@@H]2CCCN2C(=O)[C@@H]2CCCN2C(=O)[C@H]([C@@H](C)CC)NC(=O)[C@H](CO)NC(=O)[C@H](C)NC(=O)[C@H]([C@@H](C)O)NC(=O)[C@H](CCC(=O)O)NC1=O [Ex. 105] (HELM PEPTIDE1{[Nle].E.T.A.S.I.P.P.Q.R.Y.[dP].P}$PEPTIDE1,PEPTIDE1,1:R1-13:R2$$$V2.0)	34
CCCC[C@@H]1NC(=O)[C@@H]2CCCN2C(=O)[C@H]2CCCN2C(=O)[C@H](Cc2ccc(O)cc2)NC(=O)[C@H](CCCCN)NC(=O)[C@H](CCC(N)=O)NC(=O)[C@@H]2CCCN2C(=O)[C@@H]2CCCN2C(=O)[C@H]([C@@H](C)CC)NC(=O)[C@H](CO)NC(=O)[C@H](C)NC(=O)[C@H]([C@@H](C)O)NC(=O)[C@H]([C@@H](C)O)NC1=O [Ex. 106] (HELM PEPTIDE1{[Nle].T.T.A.S.I.P.P.Q.K.Y.[dP].P}$PEPTIDE1,PEPTIDE1,1:R1-13:R2$$$V2.0)	49
CCCC[C@@H]1NC(=O)[C@@H]2CCCN2C(=O)[C@H]2CCCN2C(=O)[C@H](Cc2ccc(O)cc2)NC(=O)[C@H](CCCNC(=N)N)NC(=O)[C@H](CCC(N)=O)NC(=O)[C@@H]2CCCN2C(=O)[C@@H]2CCCN2C(=O)[C@H]([C@@H](C)CC)NC(=O)[C@H](CO)NC(=O)[C@H](C)NC(=O)[C@H]([C@@H](C)O)NC(=O)[C@H](CCC(N)=O)NC1=O [Ex. 107] (HELM PEPTIDE1{[Nle].Q.T.A.S.I.P.P.Q.R.Y.[dP].P}$PEPTIDE1,PEPTIDE1,1:R1-13:R2$$$V2.0)	51
CCCC[C@@H]1NC(=O)[C@@H]2CCCN2C(=O)[C@H]2CCCN2C(=O)[C@H](Cc2ccc(O)cc2)NC(=O)[C@H](CCSC)NC(=O)[C@H](CCC(N)=O)NC(=O)[C@@H]2CCCN2C(=O)[C@@H]2CCCN2C(=O)[C@H]([C@@H](C)CC)NC(=O)[C@H](CO)NC(=O)[C@H](C)NC(=O)[C@H]([C@@H](C)O)NC(=O)[C@H]([C@@H](C)O)NC1=O [Ex. 108] (HELM PEPTIDE1{[Nle].T.T.A.S.I.P.P.Q.M.Y.[dP].P}$PEPTIDE1,PEPTIDE1,1:R1-13:R2$$$V2.0)	31
CCCC[C@@H]1NC(=O)[C@@H]2CCCN2C(=O)[C@H]2CCCN2C(=O)[C@H](Cc2ccc(O)cc2)NC(=O)[C@H](CCC(N)=O)NC(=O)[C@H](CCC(N)=O)NC(=O)[C@@H]2CCCN2C(=O)[C@@H]2CCCN2C(=O)[C@H]([C@@H](C)CC)NC(=O)[C@H](CO)NC(=O)[C@H](C)NC(=O)[C@H]([C@@H](C)O)NC(=O)[C@H]([C@@H](C)O)NC1=O [Ex. 110] (HELM PEPTIDE1{[Nle].T.T.A.S.I.P.P.Q.Q.Y.[dP].P}$PEPTIDE1,PEPTIDE1,1:R1-13:R2$$$V2.0)	38
CCCC[C@@H]1NC(=O)[C@@H]2CCCN2C(=O)[C@H]2CCCN2C(=O)[C@H](Cc2ccc(O)cc2)NC(=O)[C@H](CO)NC(=O)[C@H](CCC(N)=O)NC(=O)[C@@H]2CCCN2C(=O)[C@@H]2CCCN2C(=O)[C@H]([C@@H](C)CC)NC(=O)[C@H](CO)NC(=O)[C@H](C)NC(=O)[C@H]([C@@H](C)O)NC(=O)[C@H](CCC(N)=O)NC1=O [Ex. 111] (HELM PEPTIDE1{[Nle].Q.T.A.S.I.P.P.Q.S.Y.[dP].P}$PEPTIDE1,PEPTIDE1,1:R1-13:R2$$$V2.0)	46
CCCC[C@@H]1NC(=O)[C@@H]2CCCN2C(=O)[C@H]2CCCN2C(=O)[C@H](Cc2ccc(O)cc2)NC(=O)[C@@H]2CSSC[C@H](NC1=O)C(=O)N[C@@H]([C@@H](C)O)C(=O)N[C@@H](C)C(=O)N[C@@H](CO)C(=O)N[C@@H](CC(C)C)C(=O)N1CCC[C@H]1C(=O)N1CCC[C@H]1C(=O)N[C@@H](Cc1ccc(O)cc1)C(=O)N2 [Ex. 113] (HELM PEPTIDE1{[Nle].C.T.A.S.L.P.P.Y.C.Y.[dP].P}$PEPTIDE1,PEPTIDE1,2:R3-10:R3|PEPTIDE1,PEPTIDE1,1:R1-13:R2$$$V2.0)	35
CCCC[C@@H]1NC(=O)[C@@H]2CCCN2C(=O)[C@@H](CO)NC(=O)[C@H](Cc2ccc(O)cc2)NC(=O)[C@@H]2CSSC[C@H](NC1=O)C(=O)N[C@@H]([C@@H](C)O)C(=O)N[C@@H](C)C(=O)N[C@@H](CO)C(=O)N[C@@H]([C@@H](C)CC)C(=O)N1CCC[C@H]1C(=O)N1CCC[C@H]1C(=O)N[C@@H](CCC(N)=O)C(=O)N2 [Ex. 118] (HELM PEPTIDE1{A.S.I.P.P.Q.C.Y.[dS].P.[Nle].C.T}$PEPTIDE1,PEPTIDE1,7:R3-12:R3|PEPTIDE1,PEPTIDE1,1:R1-13:R2$$$V2.0)	43
CCCC[C@@H]1NC(=O)[C@@H]2CCCN2C(=O)[C@@H](C(C)C)NC(=O)[C@H](Cc2ccc(O)cc2)NC(=O)[C@@H]2CSSC[C@H](NC1=O)C(=O)N[C@@H]([C@@H](C)O)C(=O)N[C@@H](C)C(=O)N[C@@H](CO)C(=O)N[C@@H]([C@@H](C)CC)C(=O)N1CCC[C@H]1C(=O)N1CCC[C@H]1C(=O)N[C@@H](CCC(N)=O)C(=O)N2 [Ex. 119] (HELM PEPTIDE1{A.S.I.P.P.Q.C.Y.[dV].P.[Nle].C.T}$PEPTIDE1,PEPTIDE1,7:R3-12:R3|PEPTIDE1,PEPTIDE1,1:R1-13:R2$$$V2.0)	45
CCCC[C@@H]1NC(=O)[C@H]([C@@H](C)O)NC(=O)[C@@H]([C@H](C)O)NC(=O)[C@H](Cc2ccc(O)cc2)NC(=O)[C@@H]2CSSC[C@H](NC1=O)C(=O)N[C@@H]([C@@H](C)O)C(=O)N[C@@H](C)C(=O)N[C@@H](CO)C(=O)N[C@@H]([C@@H](C)CC)C(=O)N1CCC[C@H]1C(=O)N1CCC[C@H]1C(=O)N[C@@H](CCC(N)=O)C(=O)N2 [Ex. 126] (HELM PEPTIDE1{A.S.I.P.P.Q.C.Y.[dT].T.[Nle].C.T}$PEPTIDE1,PEPTIDE1,7:R3-12:R3|PEPTIDE1,PEPTIDE1,1:R1-13:R2$$$V2.0)	36
CCCC[C@@H]1NC(=O)[C@H]([C@@H](C)O)NC(=O)[C@@H](Cc2ccccc2)NC(=O)[C@H](Cc2ccc(O)cc2)NC(=O)[C@@H]2CSSC[C@H](NC1=O)C(=O)N[C@@H]([C@@H](C)O)C(=O)N[C@@H](C)C(=O)N[C@@H](CO)C(=O)N[C@@H]([C@@H](C)CC)C(=O)N1CCC[C@H]1C(=O)N1CCC[C@H]1C(=O)N[C@@H](CCC(N)=O)C(=O)N2 [Ex. 128] (HELM PEPTIDE1{A.S.I.P.P.Q.C.Y.[dF].T.[Nle].C.T}$PEPTIDE1,PEPTIDE1,7:R3-12:R3|PEPTIDE1,PEPTIDE1,1:R1-13:R2$$$V2.0)	40
CCCCCCCC[C@@H]1NC(=O)[C@H](CO)NC(=O)[C@H](C)NC(=O)[C@H]([C@@H](C)O)NC(=O)[C@@H]2CSSC[C@H](NC(=O)[C@H](CCC(N)=O)NC(=O)[C@@H]3CCCN3C(=O)[C@@H]3CCCN3C1=O)C(=O)N[C@@H](CCC(N)=O)C(=O)N1CCC[C@@H]1C(=O)N1CCC[C@H]1C(=O)N[C@@H](CCCC)C(=O)N2 [Ex. 129] (HELM PEPTIDE1{[Nle].C.T.A.S.[CCCCCCCC[C@H](N[*:1])C(=O)[*:2]].P.P.Q.C.Q.[dP].P}$PEPTIDE1,PEPTIDE1,2:R3-10:R3|PEPTIDE1,PEPTIDE1,1:R1-13:R2$$$V2.0)	30
